Data as given in the NIST ThermoML archive (doi:10.1016/j.fluid.2016.10.004).

Details: for mass density: 100 kPa, Liquid, buoyancy

CCC[n+]1ccc(C)cc1.O=S(=O)([N-]S(=O)(=O)C(F)(F)F)C(F)(F)F
Details | mass density [kg/m3]
268.1 K | 1482.1
278.71 K | 1469.95
283.45 K | 1465.84
288.19 K | 1461.42
293.46 K | 1456.03
298.38 K | 1450.93
303.12 K | 1446.6
308.24 K | 1440.93
313.15 K | 1435.96
318.2 K | 1431.59
323.16 K | 1426.43
328.14 K | 1421.84
333.57 K | 1416.94
338.25 K | 1412.36
343.8 K | 1407.53
348.11 K | 1402.8
353.25 K | 1398.13
357.74 K | 1394
362.63 K | 1389.16

surface tension liquid-gas [mN/m]
Details | Ring tensiometer | Wilhelmy plate
288.19 K | 35.82 | –
288.22 K | – | 35.61
293.49 K | 35.56 | 35.39
298.37 K | 35.36 | 35.2
303.11 K | 35.17 | –
303.12 K | – | 35
308.15 K | 34.96 | –
308.17 K | – | 34.85
313.06 K | 34.66 | 34.65
318.14 K | – | 34.48
318.15 K | 34.46 | –
323.06 K | – | 34.25
323.07 K | 34.23 | –
327.97 K | 33.95 | –
328 K | – | 34.04
332.97 K | 33.7 | –
333.36 K | – | 33.79
338.08 K | – | 33.6
338.17 K | 33.44 | –
343.75 K | – | 33.43
343.8 K | 33.2 | –
347.87 K | – | 33.2
348.11 K | 32.98 | –
353.29 K | – | 33.01
353.47 K | 32.7 | –
357.58 K | – | 32.83
357.72 K | 32.42 | –
362.45 K | – | 32.61
362.65 K | 32.22 | –

CCC[n+]1ccccc1C.O=S(=O)([N-]S(=O)(=O)C(F)(F)F)C(F)(F)F
surface tension liquid-gas [mN/m]
Details | Ring tensiometer | Wilhelmy plate
264.98 K | 37.98 | –
274.35 K | 37.65 | –
278.08 K | 37.48 | –
283.24 K | 37.32 | –
283.37 K | – | 36.98
288.21 K | 37.06 | –
288.25 K | – | 36.82
293.4 K | 36.9 | –
293.42 K | – | 36.65
298.31 K | 36.64 | 36.5
302.93 K | 36.45 | –
303.05 K | – | 36.31
307.78 K | 36.29 | –
307.82 K | – | 36.11
312.97 K | 36.07 | 35.95
318.38 K | – | 35.76
318.39 K | 35.83 | –
322.88 K | – | 35.52
322.94 K | 35.54 | –
328.34 K | 35.29 | 35.32
333.16 K | 35.03 | 35.12
337.5 K | 34.74 | –
337.93 K | – | 34.92
343.2 K | – | 34.77
343.21 K | 34.63 | –
347.6 K | – | 34.53
347.65 K | 34.27 | –
353.02 K | 34.14 | 34.38
359.26 K | – | 34.14
359.32 K | 33.83 | –
363.55 K | – | 33.94
363.67 K | 33.73 | –

Details | mass density [kg/m3]
274.36 K | 1487.31
278.09 K | 1484.28
283.39 K | 1478.78
288.24 K | 1473.7
293.42 K | 1468.58
298.29 K | 1464.23
303.1 K | 1459.95
307.9 K | 1454.39
313.05 K | 1449.74
318.4 K | 1444.8
322.98 K | 1440.18
328.44 K | 1435.36
333.33 K | 1430.49
338.04 K | 1426.36
343.34 K | 1421.49
347.7 K | 1417.08
353.28 K | 1412.49
359.15 K | 1407.9
363.7 K | 1403.29

CCC[n+]1ccccc1.O=S(=O)([N-]S(=O)(=O)C(F)(F)F)C(F)(F)F [1-propylpyridinium bis((trifluoromethyl)sulfonyl)amide]
Details | surface tension liquid-gas [mN/m]
318.35 K, Wilhelmy plate | 34.52
318.38 K, Ring tensiometer | 34.67
322.86 K, Wilhelmy plate | 34.29
322.89 K, Ring tensiometer | 34.46
328.15 K, Wilhelmy plate | 34.02
328.19 K, Ring tensiometer | 34.21
333.17 K, Wilhelmy plate | 33.75
333.21 K, Ring tensiometer | 33.97
338 K, Wilhelmy plate | 33.56
338.03 K, Ring tensiometer | 33.8
343.1 K, Wilhelmy plate | 33.35
343.11 K, Ring tensiometer | 33.56
347.59 K, Ring tensiometer | 33.34
347.63 K, Wilhelmy plate | 33.13
353.31 K, Wilhelmy plate | 32.87
353.34 K, Ring tensiometer | 33.1
358.35 K, Wilhelmy plate | 32.64
358.37 K, Ring tensiometer | 32.82
362.09 K, Wilhelmy plate | 32.43
362.18 K, Ring tensiometer | 32.61

Details | mass density [kg/m3]
318.41 K | 1468.8
323.02 K | 1464.45
328.3 K | 1459.61
333.28 K | 1454.58
338.11 K | 1450.05
343.18 K | 1445.34
347.36 K | 1440.68
353.35 K | 1435.49
357.87 K | 1430.78
362.15 K | 1426.55

CCC[n+]1cccc(C)c1.O=S(=O)([N-]S(=O)(=O)C(F)(F)F)C(F)(F)F
surface tension liquid-gas [mN/m]
Details | Ring tensiometer | Wilhelmy plate
264.14 K | 36.35 | –
268.06 K | 36.23 | –
273.39 K | 36.1 | –
273.45 K | – | 35.78
278.42 K | 35.88 | 35.59
283.19 K | 35.6 | –
283.2 K | – | 35.41
288.5 K | 35.39 | –
288.67 K | – | 35.22
292.92 K | 35.23 | –
292.99 K | – | 35.06
298.42 K | 35.03 | –
298.44 K | – | 34.88
303.1 K | 34.83 | –
303.12 K | – | 34.68
308.03 K | 34.64 | –
308.04 K | – | 34.53
312.72 K | – | 34.29
312.75 K | 34.39 | –
318.22 K | 34.12 | –
318.25 K | – | 34.08
323.19 K | – | 33.91
323.23 K | 33.95 | –
328.11 K | 33.69 | 33.65
333.15 K | – | 33.46
333.21 K | 33.43 | –
339.21 K | – | 33.18
339.28 K | 33.18 | –
342.59 K | 33.03 | –
342.65 K | – | 33.08
347.77 K | – | 32.85
347.91 K | 32.78 | –
352.59 K | – | 32.7
352.62 K | 32.49 | –

Details | mass density [kg/m3]
264.25 K | 1481.37
268.17 K | 1476.75
273.62 K | 1471.18
278.64 K | 1466.69
283.23 K | 1461.95
288.58 K | 1456.8
293 K | 1452.82
298.44 K | 1448.15
303.17 K | 1443.76
308.13 K | 1438.23
312.76 K | 1433.63
318.32 K | 1428.63
323.28 K | 1423.98
328.19 K | 1419.2
333.31 K | 1414.52
339.09 K | 1409.83
342.77 K | 1406.02
348.02 K | 1401
352.77 K | 1396.52
358.08 K | 1391.47
363.28 K | 1386.7
